Results from patent US20240358779A1, “EXTRACELLULAR VESICLES DERIVED FROM LACTOBACILLUS BACTERIA, AND USE THEREOF” (MD HEALTHCARE INC., priority 2021, published 2024).

Tested on: AMPK
Experiment: AMPK phosphorylation (pAMPK) in myocytes (Western blotting)
Assay type: cell-based
Text: During fasting or exercising, myocytes are depleted of energy, which causes a decrease in ATP production and an increase in AMP production. It is well known that, in this case, cells activate AMPK signaling to increase cellular homeostasis against metabolic stress. To evaluate a metabolic function regulating effect of Lactobacillus bacteria-derived vesicles, myocytes were each treated with Lactobacillus paracasei-derived vesicles (MDH-001-CM) and Lactobacillus rhamnosus-derived vesicles (MDH-003-CM) at concentrations of 0, 0.1, 1, and 10 μg/ml for 1 hour. Afterwards, the degree of AMPK phosphorylation (pAMPK), an indicator of AMPK signaling, was measured by Western blotting. As control drugs, 1 μM insulin and 50 mM metformin were used.

| Molecule | phosphorylation of AMPK (pAMPK) (50 mM metformin) | phosphorylation of AMPK (pAMPK) (1 μM insulin) |
| --- | --- | --- |
| CN(C)C(=N)N=C(N)N [metformin] | increased |  |
| insulin |  | inhibited |
